Assay results as given in ChEMBL document CHEMBL1140310, “[Nalpha-benzylTyr1,cyclo(D-Asp5,Dap8)]- dynorphin A-(1-11)NH2 cyclized in the "address" domain is a novel kappa-opioid receptor antagonist” (J Med Chem, 2005).

How the values were obtained:
[1] = Relative binding affinity for kappa and mu opioid receptors
[2] = Inhibition of [3H]DAMGO ([D-Ala2,NMePhe4,glyol]-enkephalin) binding to mu opioid receptor expressed in CHO cells; type: cell-based
[3] = Inhibition of [3H]-DPDPE (cyclo[D-Pen2,D-Pen5]enkep halin) binding to delta opioid receptor expressed in CHO cells; type: cell-based
[4] = Relative binding affinity for kappa and delta opioid receptors
[5] = Inhibition of [3H]diprenorphine binding to kappa opioid receptor expressed in CHO cells; type: cell-based

Compound	Ratio [1]	Ki [2] [nM]	Ki [3] [nM]	Ratio [4]	Ki [5] [nM]
NCCCC[C@H](NC(=O)[C@@H]1CCCN1C(=O)[C@H](CCCN=C(N)N)NC(=O)[C@@H]1CNC(=O)C[C@H](NC(=O)[C@H](Cc2ccccc2)NC(=O)CNC(=O)CNC(=O)[C@H](Cc2ccc(O)cc2)NCc2ccccc2)C(=O)N[C@H](CCCN=C(N)N)C(=O)N[C@@H](CCCN=C(N)N)C(=O)N1)C(N)=O	0.005	5880	> 10000	0.003	30.3
CC[C@H](C)[C@H](NC(=O)[C@H](CCCN=C(N)N)NC(=O)[C@H](CCCN=C(N)N)NC(=O)[C@H](CC(C)C)NC(=O)[C@H](Cc1ccccc1)NC(=O)CNC(=O)CNC(=O)[C@@H](N)Cc1ccc(O)cc1)C(=O)N[C@@H](CCCN=C(N)N)C(=O)N1CCC[C@H]1C(=O)N[C@@H](CCCCN)C(N)=O	0.33	–	6.18	0.09	0.57
CC(=O)NC[C@H](NC(=O)[C@H](CCCNC(=N)N)NC(=O)[C@H](CCCNC(=N)N)NC(=O)[C@@H](CC(N)=O)NC(=O)[C@H](Cc1ccccc1)NC(=O)CNC(=O)CNC(=O)[C@H](Cc1ccc(O)cc1)NCc1ccccc1)C(=O)N[C@@H](CCCNC(=N)N)C(=O)N1CCC[C@H]1C(=O)N[C@@H](CCCCN)C(N)=O	0.04	1660	> 10000	0.007	66.9
